ChEMBL document CHEMBL1201862, “PubChem BioAssay data set” (2004)
Active and inactive are the calls of the source.

Tests used:
[1] = cytotoxicity in HEK-293T cells, dose response, cytotoxicity control for TCR NF-kB inhibitor project, luminescence, T-cell screen hits (AID 489026); format: functional, cell-based;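 also: cells exposed to compound about 14 hours before the viability readout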
[2] = target: T1, Coagulation factor XII (Homo sapiens, UniProt P00748); format: functional;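 also: activated factor XIIa alpha cleaving a fluorogenic AMC peptide substrate; inhibitor potency from loss of enzyme activity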
T1 sequence (P00748 whole entry): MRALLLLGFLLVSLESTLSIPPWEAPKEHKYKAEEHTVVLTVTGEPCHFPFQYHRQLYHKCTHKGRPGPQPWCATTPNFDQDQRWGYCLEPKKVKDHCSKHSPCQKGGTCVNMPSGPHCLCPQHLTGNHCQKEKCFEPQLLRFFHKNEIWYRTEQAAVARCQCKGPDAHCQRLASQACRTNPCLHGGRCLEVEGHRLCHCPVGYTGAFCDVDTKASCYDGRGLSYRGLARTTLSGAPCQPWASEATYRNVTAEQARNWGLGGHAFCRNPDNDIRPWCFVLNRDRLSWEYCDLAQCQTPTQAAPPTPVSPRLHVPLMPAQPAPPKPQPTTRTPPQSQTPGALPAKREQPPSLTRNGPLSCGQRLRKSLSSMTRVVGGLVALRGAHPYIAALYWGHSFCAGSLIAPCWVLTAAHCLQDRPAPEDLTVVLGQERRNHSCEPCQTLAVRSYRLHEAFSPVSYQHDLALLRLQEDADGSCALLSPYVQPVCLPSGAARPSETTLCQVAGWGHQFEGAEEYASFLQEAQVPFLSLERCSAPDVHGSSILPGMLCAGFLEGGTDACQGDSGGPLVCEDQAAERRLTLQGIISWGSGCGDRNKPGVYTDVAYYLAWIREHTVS

[3] = target: Cytochrome P450 3A4 (Homo sapiens, UniProt P08684); conditions: Potency;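 also: confirmatory qHTS run detecting inhibitors and substrates of CYP3A4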
Sequence of Cytochrome P450 3A4 (P08684 whole entry): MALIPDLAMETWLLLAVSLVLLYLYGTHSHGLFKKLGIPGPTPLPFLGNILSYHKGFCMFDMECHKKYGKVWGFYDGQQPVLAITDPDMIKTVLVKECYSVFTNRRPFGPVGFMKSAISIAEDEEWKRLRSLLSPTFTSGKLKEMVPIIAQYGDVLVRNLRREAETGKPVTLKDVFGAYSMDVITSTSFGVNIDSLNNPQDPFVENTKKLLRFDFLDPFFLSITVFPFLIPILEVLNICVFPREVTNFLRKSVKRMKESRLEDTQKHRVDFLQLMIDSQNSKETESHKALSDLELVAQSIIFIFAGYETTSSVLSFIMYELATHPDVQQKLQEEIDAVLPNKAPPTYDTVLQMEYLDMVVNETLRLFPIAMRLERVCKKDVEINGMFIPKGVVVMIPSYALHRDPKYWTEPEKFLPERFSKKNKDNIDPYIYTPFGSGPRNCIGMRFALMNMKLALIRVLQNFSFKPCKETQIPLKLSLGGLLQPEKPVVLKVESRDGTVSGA

[4] = target: T2, Estrogen receptor (Homo sapiens, UniProt P03372);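 also: potency for inhibiting coactivator peptide recruitment to the receptor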
T2 sequence (P03372 whole entry): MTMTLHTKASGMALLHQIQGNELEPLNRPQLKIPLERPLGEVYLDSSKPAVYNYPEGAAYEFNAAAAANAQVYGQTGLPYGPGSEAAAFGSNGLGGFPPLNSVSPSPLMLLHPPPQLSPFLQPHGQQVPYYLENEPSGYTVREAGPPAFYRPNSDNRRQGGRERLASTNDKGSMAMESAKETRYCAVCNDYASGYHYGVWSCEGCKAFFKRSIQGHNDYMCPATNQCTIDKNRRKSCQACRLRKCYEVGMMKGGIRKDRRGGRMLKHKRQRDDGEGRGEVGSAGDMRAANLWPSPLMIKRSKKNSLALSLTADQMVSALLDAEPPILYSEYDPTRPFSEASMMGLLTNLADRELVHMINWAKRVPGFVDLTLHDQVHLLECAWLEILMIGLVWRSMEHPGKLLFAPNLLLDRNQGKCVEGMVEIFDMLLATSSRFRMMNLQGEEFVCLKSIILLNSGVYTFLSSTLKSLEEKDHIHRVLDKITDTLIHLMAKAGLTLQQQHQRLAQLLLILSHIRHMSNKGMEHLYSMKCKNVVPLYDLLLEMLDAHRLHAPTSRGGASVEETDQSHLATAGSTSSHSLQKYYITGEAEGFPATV

[5] = system: Escherichia coli; assay: microbe, parasite or virus in culture
[6] = cytotoxicity in HEK-293T cells, dose response, cytotoxicity control for BCR NF-kB inhibitor project, luminescence, B-cell screen hits (AID 489021); format: functional, cell-based;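 also: HEK-293T cells carrying an NF-kB luciferase reporter; cells exposed to compound for about 14 hours before viability readout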
[7] = target: SUMO-activating enzyme (Homo sapiens, UniProt Q9UBT2); assay: SUMOylation inhibitor hit validation, confirmation, SUMOylation inhibitor project, biochemical, AlphaScreen (AID 2018); format: functional
Sequence of SUMO-activating enzyme (Q9UBE0 whole entry): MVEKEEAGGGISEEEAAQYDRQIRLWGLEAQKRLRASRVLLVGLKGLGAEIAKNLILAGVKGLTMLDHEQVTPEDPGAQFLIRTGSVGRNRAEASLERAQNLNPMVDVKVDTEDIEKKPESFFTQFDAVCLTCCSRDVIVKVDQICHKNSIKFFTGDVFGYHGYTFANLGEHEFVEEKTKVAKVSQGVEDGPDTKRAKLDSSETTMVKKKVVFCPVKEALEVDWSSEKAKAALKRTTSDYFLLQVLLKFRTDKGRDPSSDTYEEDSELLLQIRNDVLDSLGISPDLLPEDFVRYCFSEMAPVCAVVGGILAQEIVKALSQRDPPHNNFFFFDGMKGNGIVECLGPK
Sequence of SUMO-activating enzyme (Q9UBT2 whole entry): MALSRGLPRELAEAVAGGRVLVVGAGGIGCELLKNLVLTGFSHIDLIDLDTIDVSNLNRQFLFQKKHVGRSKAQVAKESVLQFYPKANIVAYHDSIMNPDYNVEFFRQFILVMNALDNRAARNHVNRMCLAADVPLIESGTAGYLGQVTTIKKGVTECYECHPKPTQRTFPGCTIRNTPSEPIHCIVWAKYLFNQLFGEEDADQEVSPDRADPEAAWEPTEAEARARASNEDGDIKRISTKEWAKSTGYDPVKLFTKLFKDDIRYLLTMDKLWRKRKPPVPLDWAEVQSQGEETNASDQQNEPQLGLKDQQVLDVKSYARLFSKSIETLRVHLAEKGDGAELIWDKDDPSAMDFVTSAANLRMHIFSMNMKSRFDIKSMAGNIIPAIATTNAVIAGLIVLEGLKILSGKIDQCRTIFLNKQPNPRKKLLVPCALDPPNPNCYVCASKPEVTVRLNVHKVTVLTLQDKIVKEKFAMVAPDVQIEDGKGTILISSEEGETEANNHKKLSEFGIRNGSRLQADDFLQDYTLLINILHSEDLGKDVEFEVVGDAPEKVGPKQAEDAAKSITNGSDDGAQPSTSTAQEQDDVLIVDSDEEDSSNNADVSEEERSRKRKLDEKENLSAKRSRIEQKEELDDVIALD

[8] = target: Voltage-dependent T-type calcium channel subunit alpha-1H (Homo sapiens, UniProt O95180); format: functional;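 also: channel activity triggered by adding a high calcium stimulation buffer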
Sequence of Voltage-dependent T-type calcium channel subunit alpha-1H (O95180 whole entry): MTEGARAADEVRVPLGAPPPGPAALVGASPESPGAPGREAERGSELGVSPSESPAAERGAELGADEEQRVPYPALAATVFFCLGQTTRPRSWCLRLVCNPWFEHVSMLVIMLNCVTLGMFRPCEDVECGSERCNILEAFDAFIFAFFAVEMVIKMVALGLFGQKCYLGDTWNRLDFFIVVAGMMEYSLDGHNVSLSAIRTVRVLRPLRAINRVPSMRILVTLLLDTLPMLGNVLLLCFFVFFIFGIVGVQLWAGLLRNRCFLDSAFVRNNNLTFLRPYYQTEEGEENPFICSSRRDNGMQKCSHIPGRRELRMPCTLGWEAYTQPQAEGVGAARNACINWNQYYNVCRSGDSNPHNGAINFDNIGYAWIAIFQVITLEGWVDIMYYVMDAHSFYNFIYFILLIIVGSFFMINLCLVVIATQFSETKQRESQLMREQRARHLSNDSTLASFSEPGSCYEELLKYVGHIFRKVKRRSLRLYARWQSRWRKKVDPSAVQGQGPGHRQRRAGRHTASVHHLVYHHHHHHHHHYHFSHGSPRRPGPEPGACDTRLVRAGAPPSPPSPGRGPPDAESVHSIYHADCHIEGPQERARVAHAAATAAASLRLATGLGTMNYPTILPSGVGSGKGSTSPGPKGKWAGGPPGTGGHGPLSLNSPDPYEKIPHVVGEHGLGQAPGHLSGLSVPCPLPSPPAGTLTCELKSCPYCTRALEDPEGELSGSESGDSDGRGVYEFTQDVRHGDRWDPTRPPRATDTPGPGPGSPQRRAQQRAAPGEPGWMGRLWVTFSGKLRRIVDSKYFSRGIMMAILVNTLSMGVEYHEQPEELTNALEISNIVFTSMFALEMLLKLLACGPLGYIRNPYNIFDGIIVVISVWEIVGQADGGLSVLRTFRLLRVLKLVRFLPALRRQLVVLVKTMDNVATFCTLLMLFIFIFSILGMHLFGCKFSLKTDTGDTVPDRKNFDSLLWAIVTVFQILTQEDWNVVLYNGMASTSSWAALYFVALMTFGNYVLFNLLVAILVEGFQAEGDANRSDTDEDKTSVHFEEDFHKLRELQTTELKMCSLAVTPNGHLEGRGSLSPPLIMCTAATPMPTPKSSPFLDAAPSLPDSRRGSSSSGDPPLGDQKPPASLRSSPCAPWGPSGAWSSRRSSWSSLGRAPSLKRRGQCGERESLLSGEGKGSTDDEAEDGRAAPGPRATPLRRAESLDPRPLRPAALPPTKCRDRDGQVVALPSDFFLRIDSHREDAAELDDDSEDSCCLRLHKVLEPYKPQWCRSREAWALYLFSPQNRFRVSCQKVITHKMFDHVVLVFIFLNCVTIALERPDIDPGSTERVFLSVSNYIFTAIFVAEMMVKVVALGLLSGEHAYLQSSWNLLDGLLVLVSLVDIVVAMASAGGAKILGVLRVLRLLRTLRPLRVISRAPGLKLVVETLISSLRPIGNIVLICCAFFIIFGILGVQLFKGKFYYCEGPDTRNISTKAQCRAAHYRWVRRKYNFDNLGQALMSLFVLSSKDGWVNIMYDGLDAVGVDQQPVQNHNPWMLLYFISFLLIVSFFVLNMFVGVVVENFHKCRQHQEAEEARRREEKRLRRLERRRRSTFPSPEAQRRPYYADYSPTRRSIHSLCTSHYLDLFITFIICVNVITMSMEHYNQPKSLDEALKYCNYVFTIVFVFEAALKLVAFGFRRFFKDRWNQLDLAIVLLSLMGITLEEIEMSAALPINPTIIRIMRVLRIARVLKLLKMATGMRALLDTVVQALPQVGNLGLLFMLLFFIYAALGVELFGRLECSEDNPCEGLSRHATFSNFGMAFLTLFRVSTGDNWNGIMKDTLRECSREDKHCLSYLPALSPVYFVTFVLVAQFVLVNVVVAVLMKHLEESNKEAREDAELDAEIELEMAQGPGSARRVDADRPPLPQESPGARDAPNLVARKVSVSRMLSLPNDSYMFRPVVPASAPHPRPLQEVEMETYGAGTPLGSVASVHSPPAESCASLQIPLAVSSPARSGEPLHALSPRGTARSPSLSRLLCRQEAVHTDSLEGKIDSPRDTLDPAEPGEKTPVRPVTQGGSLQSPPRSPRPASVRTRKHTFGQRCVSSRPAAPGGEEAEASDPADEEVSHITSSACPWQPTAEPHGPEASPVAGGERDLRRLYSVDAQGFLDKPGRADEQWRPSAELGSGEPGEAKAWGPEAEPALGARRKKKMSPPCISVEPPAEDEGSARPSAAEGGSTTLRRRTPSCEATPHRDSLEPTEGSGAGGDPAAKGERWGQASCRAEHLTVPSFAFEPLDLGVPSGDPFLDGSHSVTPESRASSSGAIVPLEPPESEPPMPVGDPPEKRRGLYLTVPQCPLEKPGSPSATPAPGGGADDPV

[9] = system: INS1; assay: beta cell apoptosis inhibitors, cytokine rescue, dose response, luminescence, retest (AID 449756); format: functional, cell-based; conditions: Rattus norvegicus;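 also: cell death triggered by IL-1 beta plus TNF-alpha plus IFN-gamma mixture; protective hits raise ATP signal compared with cytokine alone wells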
[10] = target: T3, Microphthalmia-associated transcription factor (Homo sapiens, UniProt O75030); assay: TRPM1 promoter luciferase signal decrease, dose response, MITF inhibitor project, cell-based, SK-MEL-5, cherry-picked, set 3 (AID 493073); format: functional
T3 sequence (O75030 whole entry): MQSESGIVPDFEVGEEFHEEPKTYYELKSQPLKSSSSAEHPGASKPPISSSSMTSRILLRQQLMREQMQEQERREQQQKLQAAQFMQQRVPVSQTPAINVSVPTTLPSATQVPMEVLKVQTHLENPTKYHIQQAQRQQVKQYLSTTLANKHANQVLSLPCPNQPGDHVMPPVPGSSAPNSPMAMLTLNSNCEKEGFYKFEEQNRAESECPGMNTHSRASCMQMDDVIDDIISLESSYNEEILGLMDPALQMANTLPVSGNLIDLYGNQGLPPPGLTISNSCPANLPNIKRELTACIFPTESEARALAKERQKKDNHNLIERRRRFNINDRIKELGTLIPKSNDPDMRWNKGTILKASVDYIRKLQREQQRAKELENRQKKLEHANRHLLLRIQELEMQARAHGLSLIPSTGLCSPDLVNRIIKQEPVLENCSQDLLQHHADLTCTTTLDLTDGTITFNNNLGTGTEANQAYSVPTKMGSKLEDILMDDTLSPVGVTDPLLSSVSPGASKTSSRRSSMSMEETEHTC

[11] = target: T4, Estrogen receptor beta (Homo sapiens, UniProt Q92731);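 also: recombinant ER-beta bound to coactivator SRC1 peptide in presence of estradiol agonist; inhibitors block coactivator peptide binding and lower the FRET signal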
T4 sequence (Q92731 whole entry): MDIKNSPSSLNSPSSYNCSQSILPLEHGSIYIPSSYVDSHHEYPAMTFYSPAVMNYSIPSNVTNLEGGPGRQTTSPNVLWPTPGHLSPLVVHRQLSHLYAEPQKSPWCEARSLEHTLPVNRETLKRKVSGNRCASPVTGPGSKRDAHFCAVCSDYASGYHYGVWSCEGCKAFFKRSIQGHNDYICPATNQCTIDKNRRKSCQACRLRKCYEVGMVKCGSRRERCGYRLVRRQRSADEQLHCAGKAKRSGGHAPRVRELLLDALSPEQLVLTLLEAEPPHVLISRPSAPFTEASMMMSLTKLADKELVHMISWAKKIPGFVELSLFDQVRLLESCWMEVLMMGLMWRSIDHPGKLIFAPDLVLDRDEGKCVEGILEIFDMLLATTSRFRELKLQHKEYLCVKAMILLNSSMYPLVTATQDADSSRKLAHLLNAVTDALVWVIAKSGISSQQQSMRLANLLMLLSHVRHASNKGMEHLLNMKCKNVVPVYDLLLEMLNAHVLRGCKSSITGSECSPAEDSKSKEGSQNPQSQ

[12] = target: T4, Estrogen receptor beta; assay: ERβ–SRC-3 coactivator interaction inhibitors, confirmation, orthogonal assay, biochemical, ELISA, streptavidin-HRP readout (AID 1060)
[13] = system: BJ; assay: cytotoxicity toward BJ-TERT fibroblasts, dose response, cell-based, RAS-independent, luminescence (AID 1933); format: functional; conditions: Homo sapiens
[14] = system: BJ; assay: cells; format: functional, cell-based; conditions: Homo sapiens
[15] = cytotoxicity toward DRD oncogenic fibroblasts, dose response, cell-based, non-viral oncogenic, luminescence (AID 1934); format: functional; conditions: Homo sapiens
[16] = target: T5, RNA-binding protein pos-1 (Caenorhabditis elegans, UniProt G5EF15); assay: inhibitors of POS-1/mex-3 RNA binding, dose response, biochemical, fluorescence polarization (AID 1964);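 also: purified POS-1 fused to maltose binding protein made in E. coli; potency of compounds blocking POS-1 binding to fluorescent RNA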
T5 sequence (G5EF15 whole entry): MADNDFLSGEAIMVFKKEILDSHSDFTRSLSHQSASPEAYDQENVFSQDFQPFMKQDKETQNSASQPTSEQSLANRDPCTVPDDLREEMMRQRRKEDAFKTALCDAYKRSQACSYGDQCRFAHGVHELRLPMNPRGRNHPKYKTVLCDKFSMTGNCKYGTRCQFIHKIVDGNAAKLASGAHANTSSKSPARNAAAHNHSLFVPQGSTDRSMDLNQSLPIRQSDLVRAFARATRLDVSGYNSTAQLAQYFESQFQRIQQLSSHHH

[17] = target: T6, Zinc finger protein mex-5 (Caenorhabditis elegans, UniProt Q9XUB2); assay: MEX-5/TCR-2 RNA interaction inhibitors, dose response, biochemical, C. elegans, fluorescence polarization (AID 1960)
T6 sequence (Q9XUB2 whole entry): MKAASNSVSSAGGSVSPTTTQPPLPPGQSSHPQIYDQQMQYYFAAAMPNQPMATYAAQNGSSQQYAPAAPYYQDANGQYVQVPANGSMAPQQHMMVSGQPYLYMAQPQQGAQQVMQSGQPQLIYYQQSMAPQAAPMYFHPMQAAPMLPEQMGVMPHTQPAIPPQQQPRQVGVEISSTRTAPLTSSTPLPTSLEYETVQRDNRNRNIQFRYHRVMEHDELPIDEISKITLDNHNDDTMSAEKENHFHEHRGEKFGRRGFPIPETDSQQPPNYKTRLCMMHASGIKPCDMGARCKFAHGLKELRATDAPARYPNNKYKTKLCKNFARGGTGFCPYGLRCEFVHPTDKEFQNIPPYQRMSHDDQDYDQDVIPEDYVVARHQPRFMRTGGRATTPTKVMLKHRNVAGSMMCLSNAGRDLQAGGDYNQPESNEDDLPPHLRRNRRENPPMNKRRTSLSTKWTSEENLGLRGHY

[18] = target: T7, Heat shock factor protein 1 (Mus musculus, UniProt P38532); assay: inhibition of MG132-induced HSE-luciferase signal, confirmation, cell-based, NIH3T3, luminescence, dose retest (AID 2382); format: functional;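 also: NIH3T3 fibroblasts with HSF1-driven luciferase reporter stressed by proteasome inhibitor MG132; luminescence from HSF1-driven luciferase expression after 8 hours of MG132 stress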
T7 sequence (P38532 whole entry): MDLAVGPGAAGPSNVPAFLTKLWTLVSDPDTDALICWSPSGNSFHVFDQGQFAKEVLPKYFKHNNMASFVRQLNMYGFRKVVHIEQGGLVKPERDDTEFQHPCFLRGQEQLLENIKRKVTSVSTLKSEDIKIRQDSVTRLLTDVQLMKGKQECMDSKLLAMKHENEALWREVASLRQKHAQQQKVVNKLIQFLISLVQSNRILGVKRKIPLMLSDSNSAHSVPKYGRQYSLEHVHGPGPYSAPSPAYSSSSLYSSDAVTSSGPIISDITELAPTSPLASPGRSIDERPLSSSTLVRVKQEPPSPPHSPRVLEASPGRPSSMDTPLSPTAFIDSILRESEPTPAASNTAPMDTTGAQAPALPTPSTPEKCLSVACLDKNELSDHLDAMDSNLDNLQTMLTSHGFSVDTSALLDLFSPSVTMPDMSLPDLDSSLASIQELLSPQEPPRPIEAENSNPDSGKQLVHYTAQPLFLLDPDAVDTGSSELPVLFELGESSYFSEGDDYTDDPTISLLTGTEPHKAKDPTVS

[19] = THP-1 cell cytotoxicity, dose response, cytotoxicity control for non-replicating M. tuberculosis project (AID 489025); format: functional
[20] = Vero E6 cell cytotoxicity, dose response, cytotoxicity control for non-replicating M. tuberculosis project, secondary assay (AID 492998); format: functional, VeroE6; conditions: Vero C1008
[21] = target: Nonstructural protein 1 (Influenza A virus, UniProt Q194T2); format: functional, Influenza A virus (A/California/07/2009(H1N1))
Sequence of Nonstructural protein 1 (Q194T2 whole entry): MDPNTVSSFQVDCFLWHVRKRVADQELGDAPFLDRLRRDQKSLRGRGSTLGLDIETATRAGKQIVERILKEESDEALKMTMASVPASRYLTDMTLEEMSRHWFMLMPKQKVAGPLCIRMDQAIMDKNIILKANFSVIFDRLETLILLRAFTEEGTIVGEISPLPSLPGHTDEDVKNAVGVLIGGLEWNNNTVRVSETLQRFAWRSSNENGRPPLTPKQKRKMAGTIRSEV

[22] = cells; format: functional

SMILES: Cc1noc(C)c1COc1ccc(CC(=O)NCc2ccccc2)cc1
- IC50 [1]: > 80 µM (inactive)

SMILES: O=C(Oc1ccc2ccc(=O)oc2c1)c1cccs1
- IC50 [2]: 7.8 µM (active)

SMILES: Cc1ccc(N)c(N)c1
- AC50 [3]: 25.1 µM (inconclusive)

SMILES: CC1CCCN(C(=O)C2CCCN(S(=O)(=O)c3cccc4nsnc34)C2)C1 (stereo not given)
- IC50 [2]: > 50 µM (inactive)

SMILES: COc1ccc(Br)cc1CNC(=O)C1CCCN(c2nc3ccccc3o2)C1 (stereo not given)
- IC50 [4]: > 50 µM (not active)

SMILES: O=C(Nc1ccc(Br)cc1)C1CC(O)CN1C(=O)Oc1ccccc1 (stereo not given)
- AC50 [5]: 42.7 µM (active)

SMILES: O=C(Nc1ccsc1C(=O)NC1CCCCC1)c1ccccc1
- AC50 [5]: 26 µM (active)

SMILES: CCc1ccc(/C=C2\SC(=S)N(CCC(=O)Nc3cc(C)on3)C2=O)cc1
- IC50 [6]: > 80 µM (inactive)

SMILES: Cc1ccc(NC(=O)Cn2c(=O)oc3cc(S(=O)(=O)N4CCC(C)CC4)ccc32)cc1C
- IC50 [7]: 24.4 µM (active)
- EC50 [8]: 5.17 µM (active)
- AC50 [9]: 8.95 µM (active)

SMILES: COCCNC(=O)CSCc1nc(-c2ccc(SC)cc2)oc1C
- IC50 [6]: > 80 µM (inactive)

SMILES: CCOCC(=O)Nc1ccc(S(=O)(=O)Nc2ncccn2)cc1
- IC50 [2]: > 50 µM (inactive)

SMILES: CC1(C)Oc2ccc(C(=O)NC3CCCC3)cc2N(CC(=O)NC2CCCC2)C1=O
- IC50 [2]: > 50 µM (inactive)

SMILES: CC(=O)N1CC=CC1(CC(C)C)C(=O)NCC1CC1 (stereo not given)
- AC50 [3]: 31.6 µM (inconclusive)

SMILES: Cc1ccc2c(c1)COc1c3ccc(C(=O)O)cc3nn1-2
- IC50 [1]: > 80 µM (inactive)
- AC50 [10]: 2.23 µM (active)

SMILES: COC(=O)c1cccc(C23CC4(C2)[C@H](CN(Cc2ccc(-c5ccccc5)cc2)[C@@H]4c2ccccc2)C3c2ccccc2)c1 (stereo not given in full)
- AC50 [3]: 15.8 µM (inconclusive)

SMILES: O=C(CCCN1C(=O)/C(=C/c2ccccc2Cl)SC1=S)Nc1ccccn1
- IC50 [6]: > 80 µM (inactive)

SMILES: O=C(c1cccc(F)c1)N1CCN(C(=O)c2cc3ncc(Br)cn3n2)CC1
- IC50 [4]: 33.4 µM (not active)
- IC50 [11]: 11.5 µM (active)
- IC50 [12]: 1.16 µM (not active)

SMILES: Cc1cc(C(=O)N2CC=C(c3ccccc3)CC2)c2ccccc2n1
- EC50 [13]: 1.32 µM (active)
- EC50 [14]: 86.7 µM (active)
- EC50 [15]: 0.653 µM (active)
- IC50 [1]: > 80 µM (inactive)

SMILES: CCN1CCc2nc(NC(=O)Cc3ccc4c(c3)OCCO4)sc2C1
- IC50 [4]: 28.8 µM (active)

SMILES: NC1=C(c2nc3ccccc3[nH]2)C(=O)CN1c1ccc(CC(=O)O)cc1
- EC50 [16]: 5.25 µM (inconclusive)
- EC50 [17]: 1.59 µM (active)
- EC50 [18]: > 195 µM (not active)
- IC50 [11]: 25.9 µM (active)
- IC50 [12]: < 0.023 µM (not active)

SMILES: O=C(Nc1nc(-c2ccccn2)cs1)c1ccc([N+](=O)[O-])o1
- CC50 [19]: 9.27 µM (active)
- CC50 [20]: 4.61 µM (active)
- IC50 [21]: 11.7 µM (active)
- AC50 [10]: 10.8 µM (active)
- IC50 [22]: 4.38 µM (active)
- AC50 [9]: 2.11 µM (active)

SMILES: CN(CC(=O)NCCN1CCOCC1)S(=O)(=O)c1ccc(Cl)cc1
- AC50 [5]: 23.2 µM (active)

SMILES: COc1ccc2c(=O)c(-c3ccccc3)coc2c1
- AC50 [3]: 39.8 µM (inconclusive)
